Where two headings read alike, the source gives them in different places.
How the values were obtained:
ERK signaling pathway = experiment: Immunoblotting of p-ERK in CXCL5-stimulated HuVEC; assay type: cell-based; settings: 5 μM pre-treatment 1 h, CXCL5 50 ng/ml 10 min
Description: E: HuVEC were pre-treated with 5 μM compound #1 for 1 h then stimulated with 50 ng/ml CXCL5 for 10 min. p-ERK levels were analyzed by immunoblotting. ERK and HSP60 served as loading controls *P<0.05; **P<0.01; ***P<0.001.
(§1) Cells were lysed in buffer containing 3% SDS, 10% glycerol and 0.825 mM Na2HPO4. 30 to 50 μg of proteins were separated on 10% SDS-PAGE, transferred onto a PVDF membrane (Immobilon, Millipore, France) and then exposed to the appropriate antibodies. Proteins were visualized with the ECL system using horseradish peroxidase-conjugated anti-rabbit or anti-mouse secondary antibodies.

786-O = experiment: XTT cell viability assay, 786-O; assay type: cell-based, human
Description: (§2) A, B: Naive (786-O, A), and sunitinib-resistant (786-R, B) 786-O cells, were treated with compound #1 or sunitinib (1 to 10 μM) for 48 hr. Cell viability was measured by XTT assays;
(§3) D, E: 786-O (D), 786-R (E), were treated with 2.5 μM compound #1 or 2.5 μM sunitinib for 24 h to 96 h. The cells metabolism was measured by XTT assay;
(§4) Fifty microliters of sodium 3′-[1-phenylaminocarbonyl)-3,4-tetrazolium]-bis(4-methoxy-6-nitro) benzene sulfonic acid hydrate (XTT) reagent was added to each well. The assay is based on the cleavage of the yellow tetrazolium salt XTT to form an orange formazan dye by metabolically active cells. The absorbance of the formazan product, reflecting cell viability, was measured at 490 nm. Each assay was performed in quadruplicate.
(§5) Compounds #1-#14 have been assayed as potential anti-proliferative agents against a panel of human breast head and neck, and kidney tumor cells and hematological malignancies, selected on the basis of their aggressiveness (e.g. incurable triple-negative breast cancer cells: MDA-MB-231; kidney ccRCC cells: RCC4, A498 and 786-O and 786R; head and neck cancer cells: CAL33, CAL33RR, CAL27, and CAL27RR; acute myeloid cell lines: OCI-AML2, OCI-AML3, MolM13, and MolM14; myelodysplastic cell line: SM1; and chronic myeloid cell line: CML). All these cell lines share as common denominator the expression of CXCR1 and CXCR2. The EC50 values have been measured by a XTT colorimetric assay, and compared to those of SB-225002, used as a reference; the results are listed in Table 1.

CAL33RR = experiment: XTT cell viability assay, CAL33RR; assay type: cell-based; settings: Homo sapiens, light or radiation study; XTT assay (48 h); resistant to irradiation and cisplatin; standard deviation of 10%; read-out: EC50 (μM) Head and Neck CAL33RR
Description: as §4, §5

TF and CC cells = experiment: FACS apoptosis markers, primary RCC cells; assay type: cell-based, human; settings: 1 μM, 48 h
Description: C: Primary RCC cells (TF and CC) and normal renal cells (15S) were treated with compound #1 (1 to 5 μM) for 48 h. Cells were stained with the PI/annexin-V-fluos staining kit according to the manufacturer's indications. Histograms show both annexin-V+/PI− cells (open bars) and annexin-V+/PI+ cells (filled bars). *P<0.05; **P<0.01; ***P<0.001.
Apoptosis analysis: After stimulation, cells were washed with ice-cold PBS and were stained with the annexin-V-fluos staining kit (Roche, Meylan, France) according to the manufacturer's procedure. Fluorescence was measured by using the FL2 (AV) and FL3 (propidium iodide, PI) channels of a fluorescence-activated cell sorter apparatus (Calibur cytometer).

DAOY and HD-MB03 cells = experiment: Clonogenicity, medulloblastoma cells; assay type: cell-based; settings: 1 μM, Day+7 (DAOY), Day+11 (HD-MB03)
Description: FIG. 8: Inhibition of proliferation of medulloblastoma cells by compound #1. Clonogenicity tests; […].
150 DAOY cells and 300 HD-MB03 cells were seeded in a 6-well plate with or without treatment (1 μM of compound #1 or DMSO as control “CONT”). At Day+7 (DAOY) and Day+11 (HD-MB03), cells were mixed with absolute ethanol for 20 minutes, washed with PBS and colored with Giemsa 50% for 30 minutes. After washing, the boxes were scanned and the number of clones was quantified using ImageJ® software. Each assay was performed in duplicate.

HuVEC = HuVEC viability/proliferation (XTT), basal and CXCL5/CXCL7-dependent; assay type: cell-based; settings: XTT 48 h; 100 ng/ml CXCL7 or CXCL5, 0.25 or 0.5 μM
Description: C: HuVEC were grown in the presence of different concentrations of compound #1 for 48h. Cell viability was measured by XTT assays;
D: HuVEC were incubated with 100 ng/ml CXCL7 or CXCL5, in presence of 0.25 or 0.5 μM compound #1 for 48 h. Cell viability was measured by XTT assays;
as §4

[1] = tested on: phosphorylation of ERK and AKT; experiment: Immunoblotting of p-ERK and p-AKT in 786-O and 786-R; assay type: cell-based, human; settings: 2.5 μM, 1 to 48 h
Description: H: 786-O and 786-R were treated with 2.5 μM compound #1 for 1 to 48 h. p-ERK and p-AKT levels were determined by immunoblotting. ERK and AKT served as loading controls. *P<0.05; **P<0.01; ***P<0.001.
as §1

SKM1 = experiment: XTT cell viability assay, SKM1; assay type: cell-based, human; settings: Homo sapiens, SKM-1; XTT assay (48 h); standard deviation of 10%; read-out: EC50 (μM) MDS SKM1
Description: as §4, §5

K562 = experiment: XTT cell viability assay, K562; assay type: cell-based, human; settings: Homo sapiens, K562; XTT assay (48 h); standard deviation of 10%; read-out: EC50 (μM) CML K562
Description: as §4, §5

OCI-AML2 = experiment: XTT cell viability assay, OCI-AML2; assay type: cell-based, human; settings: Homo sapiens, OCI-AML2; XTT assay (48 h); standard deviation of 10%; read-out: EC50 (μM) AML OCI-AML2
Description: as §4, §5

786R = experiment: XTT cell viability assay, 786R (sunitinib-resistant); assay type: cell-based, human; settings: for EC50: XTT assay (48 h), sunitinib-resistant, standard deviation of 10%, read-out: EC50 (μM) Kidney 786R
Description: as §2, §3, §4, §5

[2] = Stability in cellulo by UPLC/HRMS on 786-O cell line; assay type: in vitro ADME; settings: 24h treatment at room temperature
Source text: The stability of compound #1 was first assayed through UPLC/HRMS analyses in cellulo on the 786-O cell line.

O=C(Nc1cccc(Cl)c1)Nc1nc2ccc([N+](=O)[O-])cc2s1 [Compound #1, 1-(3-chlorophenyl)-3-(6-nitrobenzo[d]thiazol-2-yl)urea]
ERK signaling pathway (p-ERK) in HuVEC (ERK signaling pathway): inhibition of the ERK signaling pathway | time of treatment to total inhibition of proliferation (786-O; 786-O cells, 2.5 μM, XTT 24 h to 96 h): approximately 65 hours | EC50 (786-O; Homo sapiens, 786-0, XTT assay (48 h), standard deviation of 10%, read-out: EC50 (μM) Kidney 786-O): 2 µM | EC50 (CAL33RR): 3 µM | apoptosis markers in TF and CC cells (TF and CC cells): puts into exergue the apoptosis markers in TF and CC cells | formation of DAOY and HD-MB03 clones (DAOY and HD-MB03 cells): significatively reduces the formation | basal and CXCL5/CXCL7-dependent HuVEC proliferation (HuVEC): inhibits basal and CXCL5/CXCL7-dependent HuVEC proliferation | phosphorylation of ERK and AKT [1]: inhibits the phosphorylation of ERK and AKT | EC50 (SKM1): 5 µM | EC50 (K562): 2 µM | EC50 (OCI-AML2): 5 µM | time of treatment to total inhibition of proliferation (786R; 786-R cells, 2.5 μM, XTT 24 h to 96 h): ~100 h | EC50 (786R; Homo sapiens, 48 h): 2 µM | EC50 (786R): 2.5 µM | degradation (stability in cellulo) [2]: No degradation
